Measurements: US20080076824A1, “Compounds That Inhibit Replication Of Human Immunodeficiency Virus” (priority 2004, published 2008)
Where a name gives a salt, the structure may show the parent alone. Residues, ends and D or L forms follow the SMILES beside them.

Tests used:
in vitro = conditions: human
human PBMC = assay: Mitogenic activity assay, [3H]dThd incorporation in human PBMC with or without PHA; type: cell-based; conditions: concentrations up to 200 μg/ml, absence of PHA
Protocol: The mitogenic activity assay was conducted as follows. Human PBMC were isolated from buffy coats and brought in RPMI-1640 cell culture medium supplemented with 10% FCS and 2 mM L-glutamine. The cell cultures were exposed to several concentrations of the test compounds for 3 days in the absence or presence of PHA (phytohemagglutinin) (Murex Biotech Ltd., Dartford, UK) at 2 μg/ml. Subsequently, 0.25 μCi [CH3^−3H]dThd was added and, after 20 hr incubation at 37° C., the cells were precipitated in the presence of 10% TCA and the precipitate was washed twice with 10% TCA, twice with 5% TCA and once with 70% ethanol. The precipitate, containing [^3H]DNA, was then examined for radioactivity in a liquid scintillation counter.

C8166 cells = assay: Cytotoxicity (CC50) in C8166 cells; type: cell-based
[1] = system: Herpes simplex virus-1 TK^− KOS ACV^r; conditions: read-out: Minimum inhibitory concentration Herpes simplex virus-1 TK^− KOS ACV^r; HEL; reduces virus-induced cytopathogenicity by 50%
[2] = Conversion of G-NH2 to modified G-NH2 by dialyzed pig plasma (cation exchange HPLC); type: in vitro ADME; conditions: for conversion to modified G-NH2 (24 hr) (percent conversion) Dialysed Pig plasma: 37° C.; for Percent conversion / μM formation: 6 hr
Protocol: In still another set of experiments, a first step isolation of the cofactor present in pig plasma was performed and the enzymatic activity of the isolated product was compared to the enzymatic activity of the crude product. An aliquot of pig plasma was placed in dialysis tubing (MW cut off 10,000) and the serum was subjected to dialysis. Subsequently, the pig plasma dialysate was evaluated for the ability to convert G-NH2 to modified G-NH2.
(§1) Various concentrations of G-NH2 were mixed with either 90% pig plasma or 90% dialyzed pig plasma in PBS and the reactions were conducted at 37° C. for 24 hours. Subsequently, aliquots of the mixtures were separated by cation exchange HPLC, as described previously, and the conversion of G-NH2 to modified G-NH2 was evaluated. […] Saturation of the enzyme activity of cofactor(s) in pig plasma (90% in PBS) occurred between 1,000 μM and 10,000 μM G-NH2.
In still another set of experiments, the saturation point of the isolated cofactor found in pig plasma was more closely scrutinized. Dialyzed pig plasma (90% in PBS) was mixed with concentrations of G-NH2 between […] and 10,000 μM. Subsequently, the mixtures were incubated at 37° C. for 6 hours and aliquots were separated by cation exchange HPLC, as before. The results shown in TABLE 8 confirmed that the saturation point of the cofactor(s) in pig plasma was near 2,000 μM G-NH2.

HIV-1 = conditions: for anti-HIV activity in the presence of IlePyr: 200 and 500 μM IlePyr, in words
[3] = Conversion of radiolabeled G-NH2 to modified G-NH2 by fetal bovine sera; type: in vitro ADME; conditions: 10% fetal bovine sera in PBS, 37° C.
Protocol: (§2) Several lots of human sera and fetal bovine sera were analyzed for their ability to convert G-NH2 to modified G-NH2. Radiolabeled cation exchange HPLC purified G-NH2 (see EXAMPLE 3) was incubated with the various sera at a 10% final concentration in PBS at 37° C. for 15 minutes and 1, 6, 24, or 72 hours. Subsequently, the amount of radiolabeled modified G-NH2 was evaluated using the cation exchange HPLC approach described above.

Vaccinia virus = conditions: read-out: Minimum inhibitory concentration Vaccinia virus; HEL; reduces virus-induced cytopathogenicity by 50%
HIV-1 (NL4.3) = conditions: read-out: EC50 HIV-1 NL3.4; CEM cell cultures, syncytia formation
Protocol: (§3) Human T-lymphocytic CEM cells (4.5×10^5 cells per ml) were suspended in fresh cell culture medium and infected with HIV-1 (IIIB and NL4.3) or HIV-2 (ROD or EHO) at 100 CCID50 (1 CCID50 being the virus dose infective for 50% of the cell cultures) per ml of cell suspension. Then, 100 μl of the infected cell suspension were transferred to microplate wells, mixed with 100 μl of appropriate (freshly prepared) dilutions of the test compounds (i.e., at final concentrations of […]), and were further incubated at 37° C. After 4 to 5 days, giant cell formation was recorded microscopically in the CEM cell cultures.

HIV-2 (EHO) = conditions: read-out: EC50 HIV-2 EHO; CEM cell cultures, syncytia formation
Protocol: as §3

Coxsackie virus B4 [4] = assay: Antiviral activity in Vero cell cultures, Coxsackie virus B4; type: cell-based; conditions: reduces virus-induced cytopathogenicity by 50%, read-out: Minimum inhibitory concentration Coxsackie virus B4
Protocol: (§4) The cytotoxicity and antiviral activity of various concentrations of G-NH2 and GPG-NH2 were evaluated in cell cultures that were infected with various types of viruses. Conventional host cell culture, viral infection, and infectivity analysis for each different type of cell and virus were followed. Compounds that were known to inhibit replication of the particular types of viruses analyzed were used as controls.

Coxsackie virus B4 [5] = assay: Antiviral activity in HeLa cell cultures, Coxsackie virus B4; type: cell-based; conditions: reduces virus-induced cytopathogenicity by 50%, read-out: Minimum inhibitory concentration Coxsackie virus B4
Protocol: as §4

Parainfluenza-3 virus = conditions: read-out: Minimum inhibitory concentration Parainfluenza-3 virus; Vero; reduces virus-induced cytopathogenicity by 50%
[6] = Conversion of radiolabeled G-NH2 to modified G-NH2 by human sera; type: in vitro ADME; conditions: 10% human serum in PBS, 37° C., 24 hours, each of 10 samples
Protocol: as §2

[7] = Conversion of G-NH2 to modified G-NH2 by pig plasma (cation exchange HPLC); type: in vitro ADME; conditions: 37° C.
Protocol: as §1

Reovirus-1 = conditions: read-out: Minimum inhibitory concentration Reovirus-1; Vero; reduces virus-induced cytopathogenicity by 50%
[8] = 2,000 μM G-NH2, dialyzed pig plasma 90% in PBS
[9] = 4,000 μM G-NH2, dialyzed pig plasma 90% in PBS
[10] = 6,000 μM G-NH2, dialyzed pig plasma 90% in PBS
[11] = 8,000 μM G-NH2, dialyzed pig plasma 90% in PBS
[12] = 10,000 μM G-NH2, dialyzed pig plasma 90% in PBS

NC(=O)C(N)O (stereo not drawn) [AlphaHGA, α-Hydroxy-glycinamide hydrochloride]
CC50 at 96 hr (in vitro): 606 ± 23 µM | mitogenic activity against human PBMCs (human PBMC): non-mitogenic

NCC(N)=O [G-NH2, glycinamide]
CC50 (C8166 cells): > 2000 µM | EC50 [1]: > 2000 µM | conversion to modified G-NH2 (24 hr) (percent conversion) Dialysed Pig plasma ([2]; 18 μM G-NH2, 90% in PBS): 99.8% | conversion to modified G-NH2 (24 hr) (percent conversion) Dialysed Pig plasma ([2]; 100 μM G-NH2, 90% in PBS): 99.8% | conversion to modified G-NH2 (24 hr) (percent conversion) Dialysed Pig plasma ([2]; 1,000 μM G-NH2, 90% in PBS): 99.8% | Percent conversion [2, 8]: 82.6% | μM formation [2, 8]: 1,652 μM | Percent conversion [2, 9]: 42.1% | μM formation [2, 9]: 1,684 μM | Percent conversion [2, 10]: 24.9% | μM formation [2, 10]: 1,494 μM | Percent conversion [2, 11]: 21.0% | μM formation [2, 11]: 1,680 μM | conversion to modified G-NH2 (24 hr) (percent conversion) Dialysed Pig plasma ([2]; 10,000 μM G-NH2, 90% in PBS): 24.7% | Percent conversion [2, 12]: 17.0% | μM formation [2, 12]: 1,700 μM | anti-HIV activity in the presence of IlePyr (HIV-1): fully preserved its anti-HIV activity | EC50 (HIV-1; CEM cell cultures, presence of 200 and 500 μM of IlePyr): 35 to 43 µM | conversion of G-NH2 to modified G-NH2 ([3]; 6 hours): 6-10% | conversion of G-NH2 to modified G-NH2 ([3]; 24 hours): 18-32% | EC50 (Vaccinia virus): > 2000 µM | EC50 (HIV-1 (NL4.3)): 45 ± 7.1 µM | EC50 (HIV-2 (EHO)): 37 ± 5.8 µM | EC50 (Coxsackie virus B4 [4]): > 2000 µM | EC50 (Coxsackie virus B4 [5]): > 2000 µM | EC50 (Parainfluenza-3 virus): > 2000 µM | conversion of G-NH2 to modified G-NH2 [6]: less than 10% | conversion to modified G-NH2 (24 hr) (percent conversion) Pig plasma ([7]; 18 μM G-NH2, plasma 90% in PBS): 99.7% | conversion to modified G-NH2 (24 hr) (percent conversion) Pig plasma ([7]; 100 μM G-NH2, plasma 90% in PBS): 99.7% | conversion to modified G-NH2 (24 hr) (percent conversion) Pig plasma ([7]; 1,000 μM G-NH2, plasma 90% in PBS): 98.7% | conversion to modified G-NH2 (24 hr) (percent conversion) Pig plasma ([7]; 10,000 μM G-NH2, plasma 90% in PBS): ˜24.5% | EC50 (Reovirus-1): > 2000 µM

NCC(=O)N1CCC[C@H]1C(=O)NCC(N)=O [GPG-NH2, glycylprolylglycinamide] (H-Gly-Pro-Gly-NH2)
EC50 [1]: > 400 µM | anti-HIV activity in the presence of IlePyr (HIV-1): markedly lost its inhibitory activity | EC50 (Vaccinia virus): > 400 µM | EC50 (HIV-1 (NL4.3)): 50 µM | EC50 (HIV-2 (EHO)): 42 ± 14 µM | EC50 (Coxsackie virus B4 [4]): > 400 µM | EC50 (Coxsackie virus B4 [5]): > 400 µM | EC50 (Parainfluenza-3 virus): > 400 µM | EC50 (Reovirus-1): > 400 µM
